Reference: US8252829B2, “Aminopyrrolidinone derivatives and uses thereof” (Link Medicine Corporation, priority 2009, dated 2012)

How the values were obtained:
[1] = molecular target: farnesyl transferase (FTase) (Homo sapiens, UniProt P49354+P49356); assay: In vitro farnesyl transferase assay (fluorescent dansyl-pentapeptide); format: biochemical; settings: dGCVLS 4 μM, FPP 5 μM, 25-50 nM FTase, 1% DMSO, room temperature
Protocol: Compounds were analyzed for inhibition of farnesyl transferase (FTase) activity using an established fluorescent peptide-based assay (Pompliano et al 1992 J. Am. Chem. Soc. 114:7945; U.S. Pat. No. 5,525,479, issued Jun. 11, 1996; each of which is incorporated herein by reference). In summary, a dansyl-pentapeptide (dGCVLS) was incubated at 4 μM with 5 μM farnesyl pyrophosphate (FPP) and 25-50 nM FTase in 50 mM Tris-HCl/12 mM MgCl2/12 μM ZnCl2/6 mM DTT/0.2% octyl-D-β-glucopyranoside/pH 7.0 at room temperature while the increase in fluorescence of the peptide at Ex=340 nm, Em=485 nm upon farnesyl addition was monitored continuously by a spectrofluorometer. Test compounds were added to the reaction mixture and the final results were compared to negative control (with solvent only), to allow measurement of the degreee of inhibition at each concentration of compound tested. Serial dilution series of test compounds were used to allow measurement of the IC50s and calculation of the resultant Ki. The linear portion of the reaction progress curve thus created was measured to yield an initial rate (Vo); a plot of Vo versus inhibitor concentration was fit by non-linear regression analysis (GraphPad Prism software) to calculate the […] and the Ki. All reactions in the inhibitor experiments contain a final concentration of 1% DMSO.

[2] = test system: Farnesyl Transferase (Ras farnesylation) in COS-7 cells; assay: Cellular assay for farnesyl transferase activity (cytosolic Ras in COS-7 cells, Western blot); format: cell-based; settings: 24 hr treatment, cytosolic Ras/actin ratio, read-out: Cell IC50
Text: Ras is a small GTP binding protein whose farnesylation and condequent membrane association can be reduced by inhibition of farnesyl transferase (Appels et al., Oncologist 10:565-578, 2005; Basso et al., J. Lipid Res. 47:15-31, 2006; Tamanoi, Trends Biochem. Sci. 18:349-353, 1993; each of which is incorporated herein by reference). Treatment with certain farnesyl transferase inhibitors (FTIs) reduces the farnesylation and membrane association of Ras, leading to accumulation of Ras in the cytosol of the cells. An assay was developed to monitor FTase activity, based on the amount of Ras present in the cytosolic fraction of COS-7 cells after FTI treatment. On day 0, COS-7 cells were passaged into 6-well plates at a density of 4×10^5 cells/well. Beginning on day 1, cells were treated with test compounds (e.g. FTIs) in 0.2% DMSO for 24 hr. On day 2, cells were lysed by passage through a 25 gauge needle 10 times in 100 μl Buffer 1 (50 mM Tris, 140 mM NaCl, 2 mM EDTA, protease inhibitor cocktail, pH 7.4) and lysates were centrifuged at 16,000 g for 30 min to isolate the cytosolic fraction (supernatant). The cytosolic fraction was analyzed by Western blot using anti-Ras antibody and anti-actin antibody for loaning control.
Western Blotting: Following transfer of SDS gels onto NC membrane, all membranes were blocked with 5% non-fat milk in TBST (50 mM Tris-HCl pH7.4, 150 mM NaCl, 0.1% Tween 20), incubated with primary antibody overnight with 1% BSA in TBST, washed three times with TBST, and incubated with horseradish peroxidase-conjugated secondary antibody for 1 hour (Promega). Bound antibodies were detected using enhanced chemiluminascence (NEM). Results were quantified based on densitometric analysis of Ras signal normalized to actin signal (Ras/actin ratio). Dose response curves were generated for serial dilutions of test compounds, which were then used to measure an IC50 for the test compound by curve fitting with Prism or equivalent software product.

[3] = test system: isolated islets / INS1 cells; assay: Oxygen consumption, Seahorse XF24 bioenergetic assay; format: cell-based, mice; settings: 1 nM
Protocol: Impaired mitochondrial function is shown by a decreased rate of oxygen consumption. For example, INS1 cells exposed to palmitate show a significant decrease in oxygen consumption rate, both under basal glucose and following stimulation with glucose. The effect of compound 28 at 1 nM on oxygen consumption was determined at 2.5 and 3.5 day incubation time points. Oxygen consumption in INS1 was measured using a Seahorse XF24 bioenergetic assay. Assays have been previously described in detail (See, Wu M, et al. Am J Physiol Cell Physiol 2007; 292:C125-36).
In one aspect, islet oxygen consumption was measured using the XF24 Islet Capture Microplate available from Seahorse Biosciences. An example of an assay to measure islet consumption is as follows:
Modified XF Assay Media (MA Media): Supplement XF DMEM assay media with 3 mM glucose and 1% FBS to run whole islets. (FBS is needed to prevent islets from becoming too adherent). Components/Formulation of Modified XF Assay Media: […]
The XF assay template is prepared via the Assay Wizard using the XF24 operation manual. The assay template is uploaded to the XF24 Analyzer before starting the assay. […]
Whole islets are prepared by standard laboratory procedure. […] The islets are counted under a dissecting microscope. […] The count of the islets is determined and the volume adjusted so that there are ˜70 islets for every 100 microliters of the islet suspension. […]

Compound | Ki [1] | IC50 [2] | increase in mitochondrial respiration (Oxygen Consumption Rate vs. time, % of base line) ([3]; 2.5 days incubation (FIG. 1)) | increase in oxygen consumption ([3]; isolated islets (FIGS. 1 and 2))
N#Cc1ccc(Cn2cncc2CN[C@H]2CCN([C@@H]3CCCc4ccc(Cl)cc43)C2=O)cc1 [Compound 30] | 0.12 nM | 2.8 nM | – | –
N#Cc1ccc(Cn2cncc2CN[C@H]2CCN(C3CCOc4ccc(F)cc43)C2=O)cc1 (stereo partly shown) [Compound 70] | – | 42 nM | – | –
N#Cc1ccc(Cn2cncc2CN[C@@H]2CCN([C@@H]3CCOc4ccc(F)cc43)C2=O)cc1 [Compound 71] | – | 2.5 nM | – | –

Further lines, with some results ahead:

Ki [1] | Compound | IC50 [2] | increase in mitochondrial respiration (Oxygen Consumption Rate vs. time, % of base line) ([3]; 2.5 days incubation (FIG. 1)) | increase in oxygen consumption ([3]; isolated islets (FIGS. 1 and 2))
0.021 nM | N#Cc1ccc(Cn2cncc2CN[C@H]2CCN([C@@H]3CCOc4ccc(Cl)cc43)C2=O)cc1 [Compound 29] | 1.8 nM | – | –
0.059 nM | N#Cc1ccc(Cn2cncc2CN[C@H]2CCN([C@@H]3CCOc4ccc(F)cc43)C2=O)cc1 [Compound 28] | 1.4 nM | 50% | 50%
